Test results as given in patent US10829473B2, “Modulators of the cystic fibrosis transmembrane conductance regulator protein and methods of use” (AbbVie Overseas S.Á.R.L., priority 2017, dated 2020).
Like-named read-outs stand apart in the source and are kept apart here. Marks after values point to notes of the source that are not given here.

Biological target: T1, F508delCFTR (Homo sapiens, UniProt P13569, DEL508-508)
T1 construct: expressed in transfected cells; host or cells: CFBE41o- human lung derived epithelial cells (CFBE41o-F508delCFTR-HRP), doxycycline-inducible
Assay: Cell Surface Expression-Horse Radish Peroxidase (CSE-HRP) Assay;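 on EC50 (with co-corrector): co-corrector chromenyl benzoic acid corrector at 2 or 3 µM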;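 on Maximum % activity (without co-corrector): % of on-plate positive control chromenyl benzoic acid corrector at 2 or 3 µM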
Type: cell-based
Conditions: for Emax: read-out: Maximum % activity (without co-corrector)
Outline: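 Corrector compounds were given as 8-point 3-fold series from 20 or 30 μM, with or without a 2 μM co-corrector, for 18-24 h at 33 °C. Surface HRP was read by luminol luminescence as % of positive control; variable-Hill-slope sigmoidal fitting gave EC50 from triplicate plates.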

[1] = test compound alone, without co-corrector, read-out: EC50 (without co-corrector)
[2] = with co-corrector, maximum at any tested concentration
[3] = with co-corrector, read-out: EC50 (with co-corrector)
[4] = without co-corrector, maximum at any tested concentration
[5] = test compound with co-corrector, maximum at any tested concentration
[6] = test compound with co-corrector, read-out: EC50 (with co-corrector)
[7] = test compound without co-corrector, maximum at any tested concentration
[8] = test compound without co-corrector, read-out: EC50 (without co-corrector)
[9] = test compound without co-corrector

T1 sequence (P13569 with tags, fused parts or gaps DEL508-508): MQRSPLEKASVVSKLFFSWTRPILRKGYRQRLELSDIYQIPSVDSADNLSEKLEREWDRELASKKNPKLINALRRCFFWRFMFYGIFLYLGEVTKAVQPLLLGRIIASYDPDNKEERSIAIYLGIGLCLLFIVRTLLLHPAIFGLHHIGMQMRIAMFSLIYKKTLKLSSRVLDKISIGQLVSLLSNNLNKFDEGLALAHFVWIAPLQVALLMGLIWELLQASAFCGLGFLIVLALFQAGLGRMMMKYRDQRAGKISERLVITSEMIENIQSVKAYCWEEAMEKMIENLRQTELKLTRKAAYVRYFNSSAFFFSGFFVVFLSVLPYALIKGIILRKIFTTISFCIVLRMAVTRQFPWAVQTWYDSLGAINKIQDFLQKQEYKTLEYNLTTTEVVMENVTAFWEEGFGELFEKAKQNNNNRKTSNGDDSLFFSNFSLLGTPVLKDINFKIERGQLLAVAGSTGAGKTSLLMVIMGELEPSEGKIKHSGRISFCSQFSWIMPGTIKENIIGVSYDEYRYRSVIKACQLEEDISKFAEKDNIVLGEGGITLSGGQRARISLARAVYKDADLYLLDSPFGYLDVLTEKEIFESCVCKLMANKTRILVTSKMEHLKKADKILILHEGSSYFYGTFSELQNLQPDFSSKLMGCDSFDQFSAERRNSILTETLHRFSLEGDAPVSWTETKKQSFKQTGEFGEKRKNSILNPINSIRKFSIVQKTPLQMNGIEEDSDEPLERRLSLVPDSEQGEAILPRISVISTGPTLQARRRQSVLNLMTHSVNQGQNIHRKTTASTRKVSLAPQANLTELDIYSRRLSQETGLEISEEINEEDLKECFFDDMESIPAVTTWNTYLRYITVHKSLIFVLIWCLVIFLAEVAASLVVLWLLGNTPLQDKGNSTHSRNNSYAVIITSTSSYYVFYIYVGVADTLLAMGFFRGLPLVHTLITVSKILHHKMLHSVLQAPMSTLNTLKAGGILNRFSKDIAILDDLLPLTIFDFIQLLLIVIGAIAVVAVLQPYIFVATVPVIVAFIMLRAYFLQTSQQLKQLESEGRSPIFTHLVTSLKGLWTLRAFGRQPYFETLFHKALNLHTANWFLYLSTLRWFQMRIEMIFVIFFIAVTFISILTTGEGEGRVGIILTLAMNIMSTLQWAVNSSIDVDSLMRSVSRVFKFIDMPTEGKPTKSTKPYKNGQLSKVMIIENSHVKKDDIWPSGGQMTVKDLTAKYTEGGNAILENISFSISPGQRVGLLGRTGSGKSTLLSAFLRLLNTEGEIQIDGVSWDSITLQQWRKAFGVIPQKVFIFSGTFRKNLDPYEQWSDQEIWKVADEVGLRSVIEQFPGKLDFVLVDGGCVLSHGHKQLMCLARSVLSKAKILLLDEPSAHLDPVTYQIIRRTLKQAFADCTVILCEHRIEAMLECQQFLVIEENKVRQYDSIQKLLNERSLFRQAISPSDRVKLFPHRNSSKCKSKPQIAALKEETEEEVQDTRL

Structure (SMILES)	EC50 [1] [µM]	Maximum % activity (with co-corrector) [2]	EC50 [3] [µM]	Emax [4] [%]	Maximum % activity (without co-corrector) [4]	Maximum % activity (with co-corrector) [5]	EC50 [6] [µM]	Emax [7] [%]	EC50 [8] [µM]	EC50 (with co-corrector) (test compound with co-corrector)	EC50 (without co-corrector) [9]
CCc1cnc(OCC(C)C)c(C2(C(=O)NS(=O)(=O)c3cccc4nc(N)ccc34)CC2)c1 [Example I-98, N-(2-aminoquinoline-5-sulfonyl)-1-[5-ethyl-2-(2-methylpropoxy)pyridin-3-yl]cyclopropane-1-carboxamide]	< 3	+++ (≥350)	< 3	> 150	–	–	–	–	–	–	–
COc1ccc(C2CC2)cc1C1(C(=O)NS(=O)(=O)c2cccc3ccccc23)CC1 [Example I-12, 1-(5-cyclopropyl-2-methoxyphenyl)-N-(naphthalene-1-sulfonyl)cyclopropane-1-carboxamide]	< 3	+++ (≥350)	< 3	> 150	–	–	–	–	–	–	–
COc1ccc(C2CCC2)cc1C1(C(=O)NS(=O)(=O)c2cccn3nccc23)CCC1 [Example I-23, 1-(5-cyclobutyl-2-methoxyphenyl)-N-(pyrazolo[1,5-a]pyridine-4-sulfonyl)cyclobutane-1-carboxamide]	3 to 10	+++ (≥350)	< 3	> 150	–	–	–	–	–	–	–
COc1ncc(C(F)(F)F)cc1C1(C(=O)NS(=O)(=O)c2cccc3[nH]ccc23)CC1 [Example I-22, N-(1H-indole-4-sulfonyl)-1-[2-methoxy-5-(trifluoromethyl)pyridin-3-yl]cyclopropane-1-carboxamide]	3 to 10	+++ (≥350)	< 3	> 150	–	–	–	–	–	–	–
CC(C)COc1ccc(N(C)C)c(C2(C(=O)NS(=O)(=O)c3cccc4ncccc34)CC2)n1 [Example I-108, 1-[3-(dimethylamino)-6-(2-methylpropoxy)pyridin-2-yl]-N-(quinoline-5-sulfonyl)cyclopropane-1-carboxamide]	< 3	+++ (≥350)	< 3	> 150	–	–	–	–	–	–	–
COc1ccc(C2CCC2)cc1C1(C(=O)NS(=O)(=O)c2cccc3nc(C)ccc23)CC1 [Example I-63, 1-(5-cyclobutyl-2-methoxyphenyl)-N-(2-methylquinoline-5-sulfonyl)cyclopropane-1-carboxamide]	< 3	+++ (≥350)	< 3	> 150	–	–	–	–	–	–	–
COC[C@@H](C)Oc1ccc(C)cc1C1(C(=O)NS(=O)(=O)c2cccc3ncccc23)CC1 [Example I-95, 1-(2-{[(2R)-1-methoxypropan-2-yl]oxy}-5-methylphenyl)-N-(quinoline-5-sulfonyl)cyclopropane-1-carboxamide]	< 3	+++ (≥350)	< 3	> 150	–	–	–	–	–	–	–
COc1ccc(C)cc1C1(C(=O)NS(=O)(=O)c2cccc3nc(N)ccc23)CC1 [Example I-79, N-(2-aminoquinoline-5-sulfonyl)-1-(2-methoxy-5-methylphenyl)cyclopropane-1-carboxamide]	< 3	+++ (≥350)	< 3	> 150	–	–	–	–	–	–	–

Next, values leading:

EC50 [1] [µM]	Maximum % activity (with co-corrector) [2]	EC50 [3] [µM]	Emax [4] [%]	Maximum % activity (without co-corrector) [4]	Maximum % activity (with co-corrector) [5]	EC50 [6] [µM]	Emax [7] [%]	EC50 [8] [µM]	EC50 (with co-corrector) (test compound with co-corrector)	EC50 (without co-corrector) [9]	Structure (SMILES)
3 to 10	+++ (≥350)	< 3	> 150	–	–	–	–	–	–	–	COC(=O)C1(c2ccc(OC)c(C3(C(=O)NS(=O)(=O)c4cccc5ncccc45)CC3)c2)CC1 [II-30]
< 3	+++ (≥350)	< 3	–	+++ (≥150)	–	–	–	–	–	–	COc1ncc(Cl)cc1C1(C(=O)NS(=O)(=O)c2cccc3ccccc23)CC1 [Example GI-3, 1-(5-chloro-2-methoxypyridin-3-yl)-N-(naphthalene-1-sulfonyl)cyclopropane-1-carboxamide]
–	–	–	–	–	+++ (≥350)	3 to 10	> 150	3 to 10	–	–	Cc1cnc(N2CCCC2)c(C2(C(=O)NS(=O)(=O)c3cccc4ncccc34)CC2)c1 [GII-38, 1-[5-methyl-2-(pyrrolidin-1-yl)pyridin-3-yl]-N-(quinoline-5-sulfonyl)cyclopropane-1-carboxamide]
–	–	–	–	–	+++ (≥350)	3 to 10	> 150	3 to 10	–	–	COc1cnc(C2CC2)c(C2(C(=O)NS(=O)(=O)c3cccc4ncccc34)CC2)c1 [GII-15, 1-(2-cyclopropyl-5-methoxypyridin-3-yl)-N-(quinoline-5-sulfonyl)cyclopropane-1-carboxamide]
–	–	–	–	–	+++ (≥350)	< 3	> 150	< 3	–	–	CCc1cnc(OC(C)C)c(C2(C(=O)NS(=O)(=O)c3cccc4[nH]ccc34)CC2)c1 [Example GI-41, 1-{5-ethyl-2-[(propan-2-yl)oxy]pyridin-3-yl}-N-(1H-indole-4-sulfonyl)cyclopropane-1-carboxamide]
3 to 10	+++ (≥350)	3 to 10	> 150	–	–	–	–	–	–	–	O=C(NS(=O)(=O)c1cccc2ccccc12)C1(c2cccc(Br)c2)CC1 [Example III-92, 1-(3-bromophenyl)-N-(naphthalene-1-sulfonyl)cyclopropane-1-carboxamide]
–	–	–	–	–	++ (≥150 and <350)	–	50 to 150	–	++^a	++^a	Cc1ccc2c(S(=O)(=O)NC(=O)C3(c4cccnc4N4CCCC4)CC3)cccc2n1 [GII-34, N-(2-methylquinoline-5-sulfonyl)-1-[2-(pyrrolidin-1-yl)pyridin-3-yl]cyclopropane-1-carboxamide]
–	–	–	–	–	+++ (≥350)	< 3	> 150	< 3	–	–	CC(C)OC1CCN(c2ncc(C3CCC3)cc2C2(C(=O)NS(=O)(=O)c3cccc4[nH]ccc34)CC2)CC1 [Example GI-104, 1-(5-cyclobutyl-2-{4-[(propan-2-yl)oxy]piperidin-1-yl}pyridin-3-yl)-N-(1H-indole-4-sulfonyl)cyclopropane-1-carboxamide]
3 to 10	+++ (≥350)	3 to 10	50 to 150	–	–	–	–	–	–	–	O=C(NS(=O)(=O)c1ccccc1Cl)C1(c2cccc(Cl)c2)CC1 [Example III-23, N-(2-chlorobenzene-1-sulfonyl)-1-(3-chlorophenyl)cyclopropane-1-carboxamide]
–	–	–	–	–	++ (≥150 and <350)	3 to 10	50 to 150	–	–	++^a	COCCOc1cnc(OC)cc1C1(C(=O)NS(=O)(=O)c2cccc3nc(C)ccc23)CC1 [GII-46, 1-[2-methoxy-5-(2-methoxyethoxy)pyridin-4-yl]-N-(2-methylquinoline-5-sulfonyl)cyclopropane-1-carboxamide]
< 3	+++ (≥350)	< 3	> 150	–	–	–	–	–	–	–	COc1cc(C2CCC2)cc(OC)c1C1(C(=O)NS(=O)(=O)c2cccc3cnn(C)c23)CC1 [II-67]
< 3	+++ (≥350)	< 3	> 150	–	–	–	–	–	–	–	COc1ccc2c(S(=O)(=O)NC(=O)C3(c4cc(C5CCC5)cnc4OCC(C)C)CC3)cccc2n1 [II-94]
–	–	–	–	–	+++ (≥350)	< 3	> 150	< 3	–	–	Cc1ccc2c(S(=O)(=O)NC(=O)C3(c4cc(C5CCC5)cnc4N4CCC(OC(C)C)CC4)CC3)cccc2n1 [Example GI-113, 1-(5-cyclobutyl-2-{4-[(propan-2-yl)oxy]piperidin-1-yl}pyridin-3-yl)-N-(2-methylquinoline-5-sulfonyl)cyclopropane-1-carboxamide]
–	–	–	–	–	+++ (≥350)	3 to 10	> 150	3 to 10	–	–	CCc1cnc(N(C)C)c(C2(C(=O)NS(=O)(=O)c3cccc4nc(C)ccc34)CC2)c1 [GII-48, 1-[2-(dimethylamino)-5-ethylpyridin-3-yl]-N-(2-methylquinoline-5-sulfonyl)cyclopropane-1-carboxamide]
–	–	–	–	–	+++ (≥350)	< 3	> 150	< 3	–	–	CCOc1ncc(C2CCC2)cc1C1(C(=O)NS(=O)(=O)c2cccc3nc(C)ccc23)CC1 [Example GI-115, 1-(5-cyclobutyl-2-ethoxypyridin-3-yl)-N-(2-methylquinoline-5-sulfonyl)cyclopropane-1-carboxamide]
> 10	+ (<150)	> 10	< 50	–	–	–	–	–	–	–	O=C(N1CCc2ccc(S(=O)(=O)NC(=O)C3(c4cccc(Cl)c4)CC3)cc2C1)C(F)(F)F [Example III-72, 1-(3-chlorophenyl)-N-[2-(trifluoroacetyl)-1,2,3,4-tetrahydroisoquinoline-7-sulfonyl]cyclopropane-1-carboxamide]
> 10	+ (<150)	3 to 10	< 50	–	–	–	–	–	–	–	COc1ccc(S(=O)(=O)NC(=O)C2(c3ccc(Cl)cc3Cl)CC2)cc1OC [Example III-25, 1-(2,4-dichlorophenyl)-N-(3,4-dimethoxybenzene-1-sulfonyl)cyclopropane-1-carboxamide]
–	–	–	–	–	+++ (≥350)	< 3	> 150	< 3	–	–	O=C(NS(=O)(=O)c1cccc2ncccc12)C1(c2cc(C3CCC3)cnc2OCC2CC2)CC1 [Example GI-100, 1-[5-cyclobutyl-2-(cyclopropylmethoxy)pyridin-3-yl]-N-(quinoline-5-sulfonyl)cyclopropane-1-carboxamide]
